Source: ChEMBL document CHEMBL2040724, “New synthesis and promising neuroprotective role in experimental ischemic stroke of ONO-1714” (Eur J Med Chem, 2012)
The source made the active and inactive calls. The rule behind the calls is not given here.

How the values were obtained:
Mus musculus = assay: Neuroprotective activity in permanent middle cerebral artery occlusion model of CD-1 mouse brain assessed as reduction of infarct volume administered subcutaneously by using Alzet mini-osmotic pumps for 21 days before and 48 hrs after pMCAO by TTC staining; type: functional, organism-based
[1] = tested on: Peritoneal macrophage cell; assay: Inhibition of LPS/INFgamma-induced nitric oxide production in CD-1 mouse peritoneal macrophages after 48 hrs by Griess reaction; conditions: CD-1, Peritoneal macrophage cell
[2] = Cytotoxicity against CD-1 mouse peritoneal macrophages assessed as survival rate at 10 uM after 48 hrs by SRB assay; type: cell-based, Peritoneal macrophage cell; conditions: read-out: Activity
[3] = Cytotoxicity against CD-1 mouse peritoneal macrophages assessed as survival rate at 0.1 uM after 48 hrs by SRB assay; type: cell-based, Peritoneal macrophage cell; conditions: read-out: Activity
[4] = target: T1, Nitric oxide synthase, inducible (Mus musculus, UniProt P29477); assay: Inhibition of mouse recombinant iNOS activity assessed as conversion of [14C]-L-arginine to [14C]-L-citrulline by liquid scintillation counting
T1 sequence (P29477 whole entry): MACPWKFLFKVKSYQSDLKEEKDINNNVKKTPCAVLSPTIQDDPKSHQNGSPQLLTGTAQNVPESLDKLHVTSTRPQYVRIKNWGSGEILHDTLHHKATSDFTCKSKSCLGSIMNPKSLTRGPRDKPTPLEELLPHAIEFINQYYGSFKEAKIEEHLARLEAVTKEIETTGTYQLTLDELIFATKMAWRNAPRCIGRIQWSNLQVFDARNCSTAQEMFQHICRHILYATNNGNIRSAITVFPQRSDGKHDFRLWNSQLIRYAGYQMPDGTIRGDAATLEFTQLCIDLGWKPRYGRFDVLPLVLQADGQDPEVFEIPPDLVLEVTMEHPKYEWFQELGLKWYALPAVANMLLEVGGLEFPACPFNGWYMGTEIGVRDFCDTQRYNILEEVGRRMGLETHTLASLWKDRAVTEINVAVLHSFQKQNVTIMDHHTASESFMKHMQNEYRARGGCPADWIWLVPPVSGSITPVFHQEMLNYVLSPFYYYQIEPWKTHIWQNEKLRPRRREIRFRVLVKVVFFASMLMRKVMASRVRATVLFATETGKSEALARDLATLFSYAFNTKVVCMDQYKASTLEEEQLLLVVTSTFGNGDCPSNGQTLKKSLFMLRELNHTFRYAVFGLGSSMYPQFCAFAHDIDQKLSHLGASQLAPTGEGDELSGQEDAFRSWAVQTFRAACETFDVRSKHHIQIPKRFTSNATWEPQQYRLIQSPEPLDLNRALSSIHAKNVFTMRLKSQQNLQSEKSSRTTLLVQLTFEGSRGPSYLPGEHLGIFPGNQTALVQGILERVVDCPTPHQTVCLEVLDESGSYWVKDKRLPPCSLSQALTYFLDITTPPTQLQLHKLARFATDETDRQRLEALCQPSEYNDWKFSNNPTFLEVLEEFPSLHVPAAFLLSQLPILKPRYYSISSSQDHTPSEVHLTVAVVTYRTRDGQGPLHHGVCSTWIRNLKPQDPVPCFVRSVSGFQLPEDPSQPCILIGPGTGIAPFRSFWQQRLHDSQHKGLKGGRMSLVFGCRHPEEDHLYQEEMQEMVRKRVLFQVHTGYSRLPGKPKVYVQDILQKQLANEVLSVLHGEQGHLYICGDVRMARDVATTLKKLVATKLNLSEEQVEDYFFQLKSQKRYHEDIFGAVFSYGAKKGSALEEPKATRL

[5] = target: Nitric oxide synthase, inducible (Rattus norvegicus, UniProt Q06518); assay: Inhibition of rat iNOS
Chain of Nitric oxide synthase, inducible (Rattus norvegicus, UniProt Q06518) (Q06518 whole entry): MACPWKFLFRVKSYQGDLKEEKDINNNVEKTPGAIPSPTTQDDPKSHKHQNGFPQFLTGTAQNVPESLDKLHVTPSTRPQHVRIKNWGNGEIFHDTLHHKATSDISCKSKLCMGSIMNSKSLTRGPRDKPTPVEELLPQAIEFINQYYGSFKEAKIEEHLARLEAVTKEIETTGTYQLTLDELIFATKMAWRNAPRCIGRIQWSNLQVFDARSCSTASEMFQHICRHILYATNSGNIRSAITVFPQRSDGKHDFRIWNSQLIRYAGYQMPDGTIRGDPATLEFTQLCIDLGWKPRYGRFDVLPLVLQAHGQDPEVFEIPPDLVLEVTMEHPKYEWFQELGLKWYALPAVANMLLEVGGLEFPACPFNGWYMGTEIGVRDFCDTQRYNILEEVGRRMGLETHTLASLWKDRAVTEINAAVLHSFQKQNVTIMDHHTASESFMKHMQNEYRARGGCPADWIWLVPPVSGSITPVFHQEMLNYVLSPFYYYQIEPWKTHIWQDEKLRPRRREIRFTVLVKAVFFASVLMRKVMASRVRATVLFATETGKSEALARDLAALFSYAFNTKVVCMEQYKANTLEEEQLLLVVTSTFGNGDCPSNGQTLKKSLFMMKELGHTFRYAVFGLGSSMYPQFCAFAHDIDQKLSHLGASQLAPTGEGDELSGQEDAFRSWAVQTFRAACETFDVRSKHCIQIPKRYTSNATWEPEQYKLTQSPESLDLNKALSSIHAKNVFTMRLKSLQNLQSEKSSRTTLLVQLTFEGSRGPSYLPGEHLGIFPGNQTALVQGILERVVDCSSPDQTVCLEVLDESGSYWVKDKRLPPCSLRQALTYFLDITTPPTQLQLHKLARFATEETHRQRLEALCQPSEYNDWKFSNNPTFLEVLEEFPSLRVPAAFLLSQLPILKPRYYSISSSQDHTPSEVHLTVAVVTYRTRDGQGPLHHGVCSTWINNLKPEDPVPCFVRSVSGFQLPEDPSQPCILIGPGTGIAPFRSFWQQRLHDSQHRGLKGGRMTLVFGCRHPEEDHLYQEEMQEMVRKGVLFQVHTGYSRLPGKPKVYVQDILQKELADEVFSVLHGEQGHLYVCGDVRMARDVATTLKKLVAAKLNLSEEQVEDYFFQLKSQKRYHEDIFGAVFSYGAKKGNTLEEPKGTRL

[6] = Cytotoxicity against CD-1 mouse peritoneal macrophages assessed as survival rate at 100 uM after 48 hrs by SRB assay; type: cell-based, Peritoneal macrophage cell; conditions: read-out: Activity
[7] = Cytotoxicity against CD-1 mouse peritoneal macrophages assessed as survival rate at 1 uM after 48 hrs by SRB assay; type: cell-based, Peritoneal macrophage cell; conditions: read-out: Activity
[8] = target: Nitric oxide synthase, inducible (Homo sapiens, UniProt P35228); assay: Inhibition of human iNOS
Chain of Nitric oxide synthase, inducible (Homo sapiens, UniProt P35228) (P35228 whole entry): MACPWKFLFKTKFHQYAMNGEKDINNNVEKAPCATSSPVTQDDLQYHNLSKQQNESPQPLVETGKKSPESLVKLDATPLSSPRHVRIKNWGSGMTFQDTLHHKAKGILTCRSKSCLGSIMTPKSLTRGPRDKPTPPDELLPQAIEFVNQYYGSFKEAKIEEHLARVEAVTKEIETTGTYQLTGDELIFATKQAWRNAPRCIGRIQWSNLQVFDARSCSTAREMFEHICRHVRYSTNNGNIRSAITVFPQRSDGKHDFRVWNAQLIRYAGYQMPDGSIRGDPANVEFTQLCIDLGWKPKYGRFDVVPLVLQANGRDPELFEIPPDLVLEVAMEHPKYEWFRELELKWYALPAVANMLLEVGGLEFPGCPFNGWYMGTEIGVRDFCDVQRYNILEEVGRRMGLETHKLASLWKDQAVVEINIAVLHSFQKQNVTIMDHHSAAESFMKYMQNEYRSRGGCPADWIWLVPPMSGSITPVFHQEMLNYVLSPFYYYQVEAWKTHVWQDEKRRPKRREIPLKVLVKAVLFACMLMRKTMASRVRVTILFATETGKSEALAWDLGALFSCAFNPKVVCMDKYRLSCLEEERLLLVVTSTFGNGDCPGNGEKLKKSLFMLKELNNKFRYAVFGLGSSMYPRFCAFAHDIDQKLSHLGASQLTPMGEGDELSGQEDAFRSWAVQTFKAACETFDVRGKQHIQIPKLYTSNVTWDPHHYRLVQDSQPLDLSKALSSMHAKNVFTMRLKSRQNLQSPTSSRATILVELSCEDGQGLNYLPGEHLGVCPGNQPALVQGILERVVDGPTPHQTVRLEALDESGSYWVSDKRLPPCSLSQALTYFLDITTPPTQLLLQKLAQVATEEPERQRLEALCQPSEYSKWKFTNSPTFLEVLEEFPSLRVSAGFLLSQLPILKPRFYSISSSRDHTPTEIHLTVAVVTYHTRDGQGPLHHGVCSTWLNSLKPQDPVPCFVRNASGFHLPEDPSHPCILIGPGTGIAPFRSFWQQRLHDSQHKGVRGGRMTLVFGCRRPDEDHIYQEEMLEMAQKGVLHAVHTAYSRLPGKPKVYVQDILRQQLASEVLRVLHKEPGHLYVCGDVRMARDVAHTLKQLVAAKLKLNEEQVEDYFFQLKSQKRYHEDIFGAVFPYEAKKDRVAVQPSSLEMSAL

| Compound | Activity (Mus musculus) | IC50 [1] [nM] | viability at 48 h, 10 µM [2] [%] | viability at 48 h, 0.1 µM [3] [%] | IC50 [4] [nM] | Ki [5] [nM] | viability at 48 h, 100 µM [6] [%] | viability at 48 h, 1 µM [7] [%] | Ki [8] [nM] |
| --- | --- | --- | --- | --- | --- | --- | --- | --- | --- |
| C[C@H]1CC(N)=N[C@@H]2[C@H](Cl)[C@@H]21 | Active | 820 | – | – | – | – | – | – | – |
| C[C@H]1CC(=N)N[C@@H]2[C@H](Cl)[C@@H]21 | – | – | 99.1 | 98.4 | 11 | 1.8 | 97.2 | 93.6 | 1.8 |
